Experiments:
[1] = molecular target: T1, Enterococcus faecalis HMG-CoA reductase (efHMGR) (Enterococcus faecalis, UniProt A0A4U3MLJ4); assay: X-ray co-crystal structure ([…] Å); mevalonate oxidation enzyme assay with Ki (IC50 […]); format: biochemical
T1 construct: gene EY666_03235; C-terminal domain (residues 381-803) of the mvaE gene product, N-terminal 6X-His tag

[2] = molecular target: T1, Enterococcus faecalis HMG-CoA reductase (efHMGR); assay: X-ray co-crystal structure ([…] Å); format: binding
[3] = molecular target: T1, Enterococcus faecalis HMG-CoA reductase (efHMGR); assay: mevalonate oxidation assay, NADPH absorbance at […] nm; […] inhibition at […]; format: biochemical
[4] = molecular target: T1, Enterococcus faecalis HMG-CoA reductase (efHMGR); assay: X-ray crystal structure ([…] Å); format: binding

CCCCc1ccc(NS(=O)(=O)c2ccc(O)c(C(=O)O)c2)cc1 [compound 315, 5-{[(4-butylphenyl)amino]sulfonyl}-2-hydroxybenzoic acid]
Ki [1]: 2 µM

CC(C)(COP(=O)(O)OP(=O)(O)OC[C@H]1O[C@@H](n2cnc3c(N)ncnc32)[C@H](O)[C@@H]1OP(=O)(O)O)[C@@H](O)C(=O)NCCC(=O)NCCSC(=O)C[C@@](C)(O)CC(=O)O [HMG-CoA]
X-ray co-crystal structure (2.27 Å) [2]: HMG-CoA binds to the large domain of one monomer and NADP^+ to small domain of the other monomer

NC(=O)c1ccc[n+]([C@@H]2O[C@H](COP(=O)(O)OP(=O)(O)OC[C@H]3O[C@@H](n4cnc5c(N)ncnc54)[C@H](OP(=O)(O)O)[C@@H]3O)[C@@H](O)[C@H]2O)c1 [NADP+]
X-ray co-crystal structure (2.27 Å) [2]: NADP^+ is present in all the active sites and HMG-CoA in only one

CC[C@H](C)C(=O)O[C@H]1C[C@@H](C)C=C2C=C[C@H](C)[C@H](CC[C@@H]3C[C@@H](O)CC(=O)O3)[C@H]21 [lovastatin]
inhibition at 50 µM [3]: 32%

C[C@@](O)(CCO)CC(=O)O [mevalonate]
X-ray crystal structure (2.27 Å) [4]: Density consistent with mevalonate is also found in one of the active sites.

Source: PMC10070635, “Targeting Enterococcus faecalis HMG-CoA reductase with a non-statin inhibitor” (Communications Biology, 2023)
